Data: patent publication US6387278B1, “Increasing subterranean mobilization of organic contaminants and petroleum by aqueous thermal oxidation” (The Regents of the University of California, priority 2000, dated 2002)

Assays:
[1] = hydrous pyrolysis/oxidation of TCE dissolved in water with dissolved oxygen; format: physicochemical; conditions: temperatures above 90° C.
Description: (§1) The static autoclave experiments are run in Dickson-type, gold-bag rocking autoclaves. The autoclave reaction vessel uses a flexible gold bag sealed with a passivated titanium head and is contained within a large steel pressure vessel. The autoclave design allows periodic sampling of the reaction cell under in situ conditions throughout the course of an experiment without disturbing the temperature and pressure of the run. During the experiment the solution contacts only gold and passivated titanium so that unwanted surface catalytic effects are eliminated. Various combinations of solid, liquid or gaseous catalysts or oxidants are introduced into the reactor in order to study their effects on reaction mechanisms and rates. The sampled fluids and gases are analyzed using a variety of analytical techniques including ICP-ES, IC, GC (using purge and trap), gas MS, GC/MS, and HPLC.
All experiments are conducted in non-reactive flexible gold bag hydrothermal systems, so that complications due to experimental artifacts from catalysis by the equipment itself are avoided, and both temperature and pressure can be precisely controlled. Many samples can be taken and tested as the reaction proceeds without affecting the conditions of the reaction itself. […]

[2] = solubility of TCE in water as a function of temperature (Dickson-type autoclave); format: physicochemical; conditions: at 298 K; calculated from solubility measured from 298 to 398 K at constant pressure
Description: as §1
A Dickson-type autoclave, as described above, equipped with a precision high pressure liquid chromatography pump to control pressure was used to measure the solubility of TCE in water as a function of temperature from 298 to 398 K at constant pressure. Obtained results were used to calculate the partial molal thermodynamic quantities for the dissolution reaction of TCE in water at 298 K: ΔGsoln=11.1 (±0.71) KJ/mol, ΔHsoln=3.075 (±0.525) KJ/mol and ΔSsoln=−28.29 (±1.61) J/mol-K.

Structure (SMILES): ClC=C(Cl)Cl [TCE, trichloroethylene]
- decrease of concentration by hydrous pyrolysis/oxidation ([1]; initial runs with high starting concentrations (up to ≧600 ppm)): ≤ 10,000 fold
- concentration eventually reached (drinking water MCL) ([1]; initial runs with high starting concentrations): 5 ppb
- ΔGsoln, partial molal quantity for the dissolution reaction in water [2]: 11.1 (±0.71) KJ/mol
- ΔHsoln, partial molal quantity for the dissolution reaction in water [2]: 3.075 (±0.525) KJ/mol
- ΔSsoln, partial molal quantity for the dissolution reaction in water [2]: −28.29 (±1.61) J/mol-K
